The values that follow come from patent US9433663B2, “Mobilization of hematopoietic stem cells” (Children's Hospital Medical Center, priority 2008, dated 2016).

Structures are written as SMILES.

Data set [1] concerns LDBM cells. Kind of data set: CFU-adhesion assay of LDBM cells on fibronectin. It is filed as cell-based, murine. The source says: (§1) To shed light on potential roles of CASIN in HSPC mobilization, the effects of CASIN on Cdc42-related cellular functions was studied, including adhesion, migration, and F-actin polymerization of progenitor cells in 32D myeloid progenitors. […] SDF-1α stimulation causes a reorganization of F-actin into a cortical ring around the cells. […] Thirdly, to gain further insight into cellular specificity and efficacy of CASIN, and also to rule out possible toxic effects by CASIN, Cdc42-involved BM progenitor cell functions were examined, including proliferation, adhesion, migration, and F-actin polymerization, in Cdc42^+/+ cells in parallel with Cdc42^−/− cells. In line with additional studies in a Cdc42 conditional knockout mouse model as described herein, Cdc42^−/− LDBM cells have increased CFU-forming progenitors compared to those of Cdc42^+/+.
(§2) Murine LDBM cells from Cdc42^+/+ as well as Cdc42^−/− mice were used for CFU-adhesion/migration experiments as described previously. Briefly, for adhesion experiment, in the presence or absence of prior CASIN treatment at doses of 5 and 10 μM, 10^5 cells were plated onto each well of 48-well plates pre-coated with fibronectin fragment CH296, which contains integrin α4β1-binding site. Adherent cells then were harvested by cells dissociation buffer (Gibco, Carlsbad, Calif.), and further plated in CFU assay. […]

For a further data set, the system named is Lin^− BM cells. Kind of data set: FACS analysis of F-actin in Lin− BM cells. Type of data set: cell-based, murine. The conditions noted are these: column-selected Lin^− BM cells, dose-dependent pattern.
Description: as §1
For orientation: A flow cytometer gives signals particle by particle.

For data set [2], the system named is LDBM cells. Kind of data set: CFU-migration assay of LDBM progenitors towards SDF-1α. It is filed as cell-based, murine.
Description: as §1, §2

Another data set has as its system LT-HSC, ST-HSC, and MPP. Description: Example 8 kinetics of BM HSC number, cell cycle and reconstitution. Type of data set: in vivo, C57Bl/6 mice. The protocol: To monitor the kinetics of CASIN effects on cell number, proliferation, and cell cycle change of HSCs, four time points post-CASIN-administration are focused on in this part. The determination of the four time points depends on the PD analysis to reflect the kinetics of HSCs from relatively quiescent state through proliferative state back to the quiescent state. In this study, the following time points are used: 0, 24, 48, and 96 hours postdosing as an example. Again C57Bl/6 mice are used here. Three subpopulations of HSC/P are investigated and phenotypically defined by flow cytometry: (1) Long-term reconstituting Flk-2-HSC (LT-HSC) subset (Lin−/c-Kit+/Sca-1+/Thy1.1int/FLK2−) capable of extensive self-renewal; (2) Short-term reconstituting Flk-2int HSC(ST-HSCF) subset (Lin−/c-K1t+/Sca-1+/Thy1.1int/FLK2int), which self-renews for a limited interval; (3) Nonself-renewing Flk-2+ multipotent progenitor (MPPF) subset (Lin−/c-K1t+/Sca-1+/Thy1.1int/FLK2+).
Harvest of PB and BM: At 0, 24, 48, and 96 h post CASIN injection, the mice are sacrificed, and then the marrow is flushed from the femurs and tibias of C57Bl/6 mice and the blood cells are collected by cardiac incision.
Change of the frequency and total number of subpopulations of HSC/Ps in BM and PB: Both PB and BM cells are further prepared for flow cytometry analysis. Then, the frequencies of LT-HSC, ST-HSC, and MPP along the four time points are determined using the combinations of cell surface markers mentioned above phenotypically by flow cytometry. The absolute numbers of different subpopulations of HSC in BM and PB are calculated according to the total cellularity of BM and PB of the mice.
Cell cycle analysis: To characterize the cell cycle status of subpopulations of HSCs following treatment with CASIN, double-sorted cells are stained with Hoechst 33342 and Pyronin Y (H/PY), allowing simultaneous assessment of the fraction of cells with more than 2n DNA content (Hoechst 33342), as well as relative levels of total double-stranded RNA (PY). […]

In data set [3] the test system is LDBM cells. Description: proliferation (CFU) and toxicity in Cdc42+/+ and Cdc42−/− LDBM progenitors. Type of data set: cell-based, murine.
Description: as §1

The next data set deals with T1, RhoA (Mus musculus, UniProt Q9QUI0).
T1 construct: endogenous in cells; host or cells: murine LDBM cells
T1 sequence (Q9QUI0 whole entry): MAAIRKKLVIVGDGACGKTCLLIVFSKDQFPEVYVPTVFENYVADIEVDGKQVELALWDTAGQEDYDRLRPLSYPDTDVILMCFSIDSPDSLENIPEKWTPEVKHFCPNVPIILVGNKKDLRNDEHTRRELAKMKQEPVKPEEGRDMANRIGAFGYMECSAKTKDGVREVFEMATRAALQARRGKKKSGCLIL
Description: Rho GTPase effector pull-down in murine LDBM cells, RhoA. It is filed as cell-based. The note with it: parallel pull-down assay. The method, then:
To analyze the effects of CASIN on the formation of active GTP-bound Cdc42, RhoA, and Rac1, effector pulldown assays were carried out as described previously. Cdc42GAP^−/− MEF, LDBM, CD34^+ hCB cells were treated with CASIN at doses of 5-20 μM in parallel with vehicle control for 2 hrs after overnight starvation, and stimulated with cytokines subsequently. And then cells were lysed in a buffer containing 20 mM Tris-HCL (pH 7.6), 100 mM NaCl, 1% Triton X-100, 10 mM MgCl2, 2 mM NaF, and Protease inhibitor cocktail (Roche Diagnostics). Lysates were incubated with GST-P21-binding domain of PAK1 for RAC1-GTP and Cdc42-GTP, and GST-RBD domain of Rhotekin for RhoA-GTP respectively. Both bound- and unbound-form of Rho GTPases were probed by immunoblotting with antibodies specific for Rac1 (BD biosciences), Cdc42 (BD biosciences), and RhoA (cell signaling).

The test system of another data set is leukemia cells. Description: apoptosis of leukemia cells by FACS analysis. It is filed as cell-based, human. The conditions noted are these: after 24 hrs' CASIN pre-treatment, FIG. 5D.

On to `OCCNC1CCCc2c1[nH]c1ccc(-c3ccccc3)cc21` (stereo not shown) [CASIN], for which the “adhesion of colony-forming progenitors to fibronectin surface” value in the data set on LDBM cells [1] (Cdc42^+/+ LDBM cells) was “dose-dependently inhibited”. Also, the “adhesion activity of Cdc42^−/− cells” value in the data set on LDBM cells [1] (Cdc42^−/− LDBM cells) is “did not have additive effects”. The “F-actin reorganization in response to SDF-1α” value in the data set on Lin^− BM cells is “impaired”. The “directional migration capacity of Cdc42^−/− cells” value with LDBM cells [2] is “did not affect”. In the data set with LT-HSC, ST-HSC, and MPP (48 hours post injection, compared to non-treated mice), the “reconstitution frequency of BM LT-HSCs” value is listed as “significantly decreases”. Further, the “cell cycle status of HSC/P subpopulations (H/PY staining)” value in the data set with LT-HSC, ST-HSC, and MPP (after CASIN administration) is on record as “decreased frequencies of cells in G0 phase”. Moreover, the “numbers and frequencies of LT-HSC, ST-HSC, and MPP population in BM” value in the data set with LT-HSC, ST-HSC, and MPP (post-CASIN administration) was “increase dramatically up to 48 h post-CASIN administration”. For the same compound, the “proliferation of WT progenitors” value with LDBM cells [3] (Cdc42^+/+ LDBM cells, FIG. 2d) is “did not affect”. In addition, the “side effect on the KO cells” value with LDBM cells [3] (Cdc42^−/− LDBM cells, FIG. 2d) is on record as “nor showed any side effect”. For the same compound, the “myeloproliferative disorders (MPDs) or hyperactivation” value with LDBM cells [3] (as compared with the Cdc42 conditional knockout mouse) is recorded as “did not cause”. For the same compound, the “toxic effect in WT or Cdc42 deficient HSPCs” value in the data set with LDBM cells [3] (dose range of 5-10 μM) is “without a detectable toxic effect”. In addition, the RhoA activity result on RhoA is reported as “no effects”. The “apoptosis of leukemia cells” value with leukemia cells is “precipitated leukemia cells to apoptosis”.
